Patent US7638678B2, “Animal model for perimenopause and menopause and methods of inducing ovarian failure” (The Arizona Board of Regents, priority 2002, dated 2009)
Entries after “also recorded” stand apart in the source; their conditions may differ.

Legend:
[1] = cited from earlier work
androstenedione = test: Circulating androstenedione RIA; assay type: in vivo, B6C3F1 mice; conditions: 160 mg/kg 15 d
Experimental: (§1) Treatment: Immature mice (d28) were weighed and injected i.p. with either 80 mg/kg (1, 2, or 3 times daily), 160 mg/kg (1 or 2 times daily), or 240 mg/kg (once daily) with VCD or sesame oil (vehicle control, i.p.) for 15 d resulting in a total daily exposure of 80, 160, 240, or 320 mg/kg (n=6/group). All reagents were obtained from Sigma-Aldrich (St. Louis, Mo.). Estrous cycles of each animal were monitored daily by vaginal cytology from date of vaginal opening to persistent diestrus in VCD-treated mice, and from date of vaginal opening to d120 in controls. On d8, d10, d12, d14, d15, d30, d37, d46, d57 and d120, animals were weighed, euthanized by CO2 inhalation, and the ovaries, liver and trunk blood were collected. […] At each time point, adrenals, kidneys, uteri, ovaries, liver, and spleen were removed, grossly examined for lesions and wet tissue weights were recorded. […]
(§2) Hormone Assays: Plasma FSH was measured by radioimmunoassay (RIA). […] Tubes were centrifuged for 15 minutes at 3000 rpm, supernatant was decanted and pellets were counted in a gamma counter for 1 minute each. […] Plasma 17β-estradiol was measured in unextracted plasma by radioimmunoassay (Diagnostic Products Inc., CA). […] Circulating androstenedione was measured by specific RIA. […] The results of all RIAs were calculated by four-parameter logistic analysis using the software AssayZap (BioSoft, Ferguson, Mo.). […]

estrous cycle = test: Estrous cyclicity by vaginal cytology; assay type: in vivo, B6C3F1 mice; conditions: 160 mg/kg i.p.
Experimental: (§3) Treatment: Immature mice (d28) were weighed and injected i.p. with either 80 mg/kg (1, 2, or 3 times daily), 160 mg/kg (1 or 2 times daily), or 240 mg/kg (once daily) with VCD or sesame oil (vehicle control, i.p.) for 15 d resulting in a total daily exposure of 80, 160, 240, or 320 mg/kg (n=6/group). All reagents were obtained from Sigma-Aldrich (St. Louis, Mo.). Estrous cycles of each animal were monitored daily by vaginal cytology from date of vaginal opening to persistent diestrus in VCD-treated mice, and from date of vaginal opening to d120 in controls. On d8, d10, d12, d14, d15, d30, d37, d46, d57 and d120, animals were weighed, euthanized by CO2 inhalation, and the ovaries, liver and trunk blood were collected. Plasma was separated from whole blood and stored at −20° C., and liver tissues were stored at −80° C. At each time point, adrenals, kidneys, uteri, ovaries, liver, and spleen were removed, grossly examined for lesions and wet tissue weights were recorded. Additional blood samples were collected by retro-orbital puncture and plasma was collected and stored on d58, d79, d91, and d100.

[2] = intravenous 14C-tagged VCD, cited from earlier work
osteocalcin = test: Osteocalcin immunoradiometric assay; assay type: in vivo, B6C3F1 mice; conditions: 160 mg/kg i.p. 15 d
Experimental: Osteocalcin measurement: Intact serum Osteocalcin was measured using an immunoradiometric assay (IRMA, Immutopics, San Clemente, Calif.). Assay sensitivity was 0.4 ng/ml and the intra-assay coefficient of variation was 6.7%.

ovarian follicles = conditions: mice, cited from earlier work
[3] = test system: ovarian follicles (primordial, primary, secondary, antral); test: Histology and follicle counting after VCD dosing; assay type: in vivo, B6C3F1 mice
Experimental: as §3
Histology and oocyte counting: Ovaries were trimmed of fat and placed in Bouin's fixative (2 hours), transferred to 70% ethanol, paraffin-embedded and serially sectioned (4-5 μm), mounted and stained with hematoxylin and eosin. In every 20th section (10-13 sections per ovary), pre-antral follicles were classified as primordial (oocyte surrounded by a single layer of flattened granulosa cells), primary (oocyte surrounded by a single layer of cuboidal cells), secondary (oocyte surrounded by multiple layers of granulosa cells) or antral follicles (follicles containing a fluid-filled antrum). Femora were collected on d58 from both control and VCD-treated animals, fixed in 4% paraformaldehyde, transferred to formaldehyde/formic acid (Cal-Rite, Richard Allan Scientific, Kalamazoo, […]., decalcified 24 hours, vacuum embedded in paraffin and 4.5 μm sections of distal metaphysis were prepared and stained with hematoxylin and eosin.
Data Analysis: Oocyte numbers were determined in ovaries from individual animals, averaged, and the means (±SEM) in control versus treated animals were analyzed for significant differences by one-way analysis of variance (ANOVA) with significance set at p<0.05. Post-hoc tests (Tukey-Kramer) were used where appropriate. The differences in plasma hormone concentrations among treatments were analyzed using a one-way ANOVA. The correlation coefficient was determined by regression analysis.

17β-estradiol = test: Plasma 17β-estradiol radioimmunoassay; assay type: in vivo, B6C3F1 mice; conditions: 160 mg/kg 15 d, d37 through d91
Experimental: as §1, §2

[4] = Tolerability of VCD dosing regimens; assay type: in vivo, mice
[5] = 240 mg/kg (80 mg/kg 3× daily), 15 d, d15
[6] = 240 mg/kg (240 mg/kg 1× daily), 15 d, d15
[7] = 320 mg/kg (160 mg/kg 2× daily), 15 d, d15

In the case of `C1CC2OC2CC1C1CO1` (stereo not shown) [VCD, 4-vinylcyclohexene diepoxide], the Water solubility [1] is given as “water soluble”, the “Relative abundance of androgen versus estrogen” value (androstenedione; d46) is given as 97 % of androgen plus estrogen and the Circulating androstenedione (androstenedione; d46, plasma pools) is given as 0.73 ± 0.05 ng/mL. The Estrous cyclicity (estrous cycle; by d58) was “all animals were acyclic”, the “Animals with irregular cycle length” value (estrous cycle; d15, irregular = less than 3 d or greater than 5 d) was 7/24 and the Half life ([2]; blood) was 4.4 min. For the same compound, the Mean residence time [2] was 4.7 min, the Plasma osteocalcin (osteocalcin; d46) was 131.3 ± 5.4 ng/mL and the Plasma osteocalcin (osteocalcin; d58) was 156.3 ± 6.1 ng/mL. The Plasma osteocalcin (osteocalcin; d120 (not different from control)) was 143.4 ± 7.1 ng/mL, the “Number of primordial and primary follicles compared to vehicle controls” value (ovarian follicles; 12 days of dosing) was “significant reduction” and the “Numbers of secondary follicles” value (ovarian follicles; 30 days of dosing) was “significant reduction”. The Primary follicles ([3]; 80 mg/kg i.p. daily, 15 d, d15) was 38.6 % of control, the Primordial follicles ([3]; 80 mg/kg i.p. daily, 15 d, ovaries d15) was 12.1 % of control and the Primary follicles ([3]; 160 mg/kg (80 mg/kg 2× daily), 15 d, d15) was 11.3 % of control. The Primordial follicles ([3]; 160 mg/kg (80 mg/kg 2× daily, and 160 mg/kg 1× daily), 15 d, d15) was 0 % of control, the Primary follicles ([3]; 160 mg/kg (160 1× daily), 15 d, d15) was 2.8 % of control and the “Antral follicles on d46” value ([3]; 160 mg/kg i.p. 15 d, d46) was 2.6 % of control. The “Primary follicles on d46” value ([3]; 160 mg/kg i.p. 15 d, d46) was 0.5 % of control, the “Primordial follicles on d46” value ([3]; 160 mg/kg i.p. 15 d, d46) was “no primordial follicles” and the “Secondary follicles on d46” value ([3]; 160 mg/kg i.p. 15 d, d46) was 0.7 % of control. The “Primary and primordial follicle numbers over time” value ([3]; 160 mg/kg i.p., d8-d30) was “reduced (p<0.05) primary and primordial follicle numbers progressively over time”, the Antral follicle numbers ([3]; 160 mg/kg, 15 d, d15-d46) was “progressively reduced” and the “Primordial follicle loss at the optimal concentration” value ([3]; 160 mg/kg, injected 1× daily) was “complete loss of primordial follicles”. The Primary follicles [3, 5] was 5.1 % of control, the Primordial follicles [3, 5] was 2.1 % of control and the Primary follicles [3, 6] was 0 % of control. For the same compound, the Primordial follicles [3, 6] was 0 % of control, the Primary follicles [3, 7] was 0.6 % of control and the Primordial follicles [3, 7] was 0 % of control. The “Plasma levels of 17β-estradiol” value (17β-estradiol) was “below the limit of detection”, the “Adverse effects of the single daily injection regimen” value ([4]; 160 mg/kg/d i.p. for 15 d) was “without adverse effects” and the “Outcome of total dose injected in a single bolus” value ([4]; 2400 mg/kg single bolus) was “died and die within hours”. For the same compound, the “Tolerance of dosing 3 times a day” value ([4]; 3 times a day @ 80 mg/kg (total 240 mg/kg/d)) was “tolerated VCD as well as mice injected once a day with 160 mg/kg; also recorded: tolerate VCD well”.
